One data set has as its system A. baumanii ATCC 19606. Nature of the data set: Antibacterial activity (MIC, broth dilution). The data set is classed as cell-based, Acinetobacter baumanii. The settings on record: CLSI, in µg/mL. The essentials:
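MIC determined by broth dilution following CLSI standards, using A. baumanii ATCC 19606.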
For orientation: Dilution methods test growth across graded concentrations, often in twofold steps.

For data set [1], the system named is protein synthesis in E. faecalis EF1509. Nature of the data set: Macromolecular synthesis assay: protein synthesis. The data set is classed as cell-based. The conditions noted are these: Enterococcus faecalis; E. faecalis EF1509, [3H]Leucine incorporation; read-out: IC50 inhibition of protein synthesis. The protocol:
(§1) The effect of compounds on the macromolecular synthetic pathways of E. faecalis EF1509 were measured as follows: Cells were grown at 35°C overnight on Tryptic Soy Agar Broth (Remel, Lenexa, KS), and growth from the plate was used to inoculate 15 ml of Mueller Hinton Broth. The culture was grown to early exponential growth phase (OD600 = 0.2 to 0.3) while incubating in a shaker at 35°C and 150 rpm. For each macromolecular assay, the test agents were added at either 0, 0.25, 0.5, 1, 2, or 4, -fold their respective MIC values for E. faecalis EF1509.
(§2) For DNA and protein synthesis, 100 μl of cell culture reaching early exponential phase was added to triplicate wells containing various concentrations of test compound or control antibiotics (2.5 μl) at 40X the final concentration in 100% DMSO (0.1% methanol in water for Rifampicin). A 2.5% DMSO treated culture served as the “no drug” control for all experiments. Cells were added in 1.25X strength MHB to account for the volume of drug added to each reaction, or in M9 minimal medium for protein synthesis reactions. […] After washing five times with 200 μl per well of cold 5% TCA, the filters were allowed to dry, and then counted using a Packard Top Count microplate scintillation counter.

The nature of data set [2]: Pharmacokinetic study in mice. The data set is classed as in vivo, male CD1 mice. Also noted: AUClast/D: unit not given here. The settings on record: for half-life / bioavailability: male, CD1, mouse.
A short description of data set [3]: Lipid II binding by Surface Plasmon Resonance. The conditions noted are these: SPR, immobilized 3-Lipid II, 25°C. The essentials: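 Farnesyl (3-isoprene) Lipid II amine-coupled (50 RUs) on CM5 chips. Compounds injected at 10 μM, 30 μl/min, 25°C, in 10 mM HEPES, 150 mM NaCl, 0.05% P20, pH 7.4 (± 3 mM EDTA), 10% DMSO. Signals corrected against control flow-cell; kinetics fitted from binding isotherms.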

Data set [4] deals with DNA synthesis in E. faecalis EF1509. Nature of the data set: Macromolecular synthesis assay: DNA synthesis. The conditions noted are these: Enterococcus faecalis; E. faecalis EF1509, [3H]Thymidine incorporation; read-out: IC50 inhibition of DNA synthesis. The data set is classed as cell-based. As for the experimental part: as §1, §2
On the technique in general: Uptake of a labelled nucleoside into DNA is a usual measure of proliferation.

In data set [5] the test system is lipid synthesis in E. faecalis EF1509. Nature of the data set: Macromolecular synthesis assay: lipid synthesis. The data set is classed as cell-based. The settings on record: Enterococcus faecalis; E. faecalis EF1509, [3H] glycerol incorporation; read-out: IC50 inhibition of lipid synthesis. As for the experimental part: as §1
For lipid synthesis, bacterial cells were grown to early exponential growth phase in MHB and 100 μl was added to 1.5 ml Eppendorf tubes (in triplicate) containing various concentrations of test compound or control antibiotics as described above. Following a 5 min incubation at room temp., [^3H] glycerol was added at 0.5 μCi per reaction. Reactions were allowed to proceed at room temperature for 40 min and then stopped through the addition of 375 μl of chloroform/methanol (1:2) followed by vortexing for 20 sec after. Chloroform (125 μl) was then added to each reaction and vortexed, followed by the addition of 125 μl dH2O and vortexing. […] Samples were then counted via liquid scintillation counting. […]

[6] abbreviates: PO 5 mg/kg, male CD1 mice, 5 mg/kg.
Where [7] appears, read: mouse, plasma, IV 2.5 mg/kg, male CD1 mice.
[8] abbreviates: mouse, plasma, PO 5 mg/kg, male CD1 mice.

Where two headings read alike, the source gives them in different places.

The term IC50 denotes the concentration that gives 50% inhibition. In general, half-life refers to the time needed for the level to fall by half in the phase considered. The bioavailability is dose-corrected exposure relative to a reference, in per cent. One may read the AUC(0-inf) as the area under the concentration-time curve extrapolated to infinity. The AUC(0-t) is exposure summed from dosing to a finite time, without extrapolation to infinity. What is called Cmax is the maximum level reached in the sampled fluid or tissue. Usually MRT stands for the average time that molecules of a dose stay in the body. As a reminder, the Kd is the concentration at which binding is half-saturated.

On to `CN(C)c1ccc(/C=C/c2cc(-c3ccc(Br)cc3)cc(-c3ccc(Br)cc3)[o+]2)cc1` [6jc48-1], for which the “Antibacterial activity (MIC) A. baumanii ATCC 19606” value in the data set on A. baumanii ATCC 19606 was “>=64”. Moreover, the IC50 was 50.4 µg/mL in data set [1], 8.3 µg/mL in data set [4] and 7.8 µg/mL in data set [5]. For the same molecule, the AUClast/D in data set [2] (IV […], male CD1 mice) came to 536±47; in data set [2] (PO 5 mg/kg, male CD1 mice), 9.4. Moreover, the AUCExtrap in data set [2] (PO 5 mg/kg, male CD1 mice) stood at 48.6%. This molecule yielded a Vss_obs in data set [2] (PO 5 mg/kg, male CD1 mice) of 1.75 L/kg. The “Finf (bioavailability)” value in data set [2] (setting [6]) worked out at 2.54%. For the same molecule, in data set [2] (setting [6]), the T1/2 is on record as 2.78 h. The half-life in data set [2] (plasma, iv, […], male CD1 mice) is more than 13 h; in data set [2] (plasma, po, 5 mg/kg, PO 5 mg/kg, male CD1 mice), approximately 3 h. In addition, the bioavailability in data set [2] (plasma, po, 5 mg/kg, PO 5 mg/kg, male CD1 mice, read-out: Finf (bioavailability)) is approximately 2.5%; in data set [2] (plasma, po, 5 mg/kg, PO 5 mg/kg, male CD1 mice, read-out: Flast (bioavailability)) it was 1.9%. For the same molecule, the results for the total exposure AUC(0-inf) in data set [2] (setting [7]) and in data set [2] (setting [8]) were 1770 ± 120 ng·h/mL and 90 ng·h/mL, respectively. In addition, the exposure AUC(0-t) in data set [2] (setting [7]) was found to be 1340 ± 117 ng·h/mL; in data set [2] (setting [8]), 46.9 ng·h/mL. The Cmax in data set [2] (setting [7]) came to 1040 ± 323 ng/mL; in data set [2] (setting [8]), 19.1 ng/mL. The same molecule came in with a mean residence time (MRT) in data set [2] (setting [7]) of 7.29 ± 0.27 h. In addition, the clearance in data set [2] (mouse, plasma, IV 2.5 mg/kg, male CD1 mice, read-out: Cl_obs) came to 23.6 ± 1.7 mL/min/kg. Moreover, in data set [3], the affinity, expressed as Kd, was 150 ± 30 nM.

`CN1/C(=C/C=C/c2cc(-c3ccccc3)cc(-c3ccccc3)[o+]2)C(C)(C)c2ccccc21` [BAS-00127538, (1-Methyl-2,4-diphenyl-6-((1E,3E)-3-(1,3,3-trimethylindolin-2-ylidene)prop-1-en-1-yl)pyryl-1-ium) tetrafluoroborate, reference compound]: the “Antibacterial activity (MIC) A. baumanii ATCC 19606” value in the data set with A. baumanii ATCC 19606 worked out at 4. Further, the figures for the IC50 in data set [1], in data set [4] and in data set [5] were 1.6 µg/mL, 1.8 µg/mL and 2.3 µg/mL, respectively. Also, the “Detection in plasma upon oral administration” value in data set [2] (oral administration (not shown)) was “could not be detected”. In data set [3], the equilibrium dissociation constant (Kd) is 1810 ± 300 nM.

The record behind these values is article PMC5077133, “Towards Development of Small Molecule Lipid II Inhibitors as Novel Antibiotics” (PLoS ONE, 2016).
